Measurements: ChEMBL document CHEMBL1201862, “PubChem BioAssay data set” (2004)
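Test compounds were applied to cells in 96-well plates for 48 hours at 5 doses. At the GI50, growth is halved.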 The source made the active and inactive calls. Cut-off read from the data, not from the text of the source: active = GI50 up to about 1.1 µM and inactive = higher.

Key:
Experiment in all cases: inhibition of tumour cell growth, NCI panel, 48 h
SNB-19 = test system: SNB-19
HOP-92 = test system: HOP-92
RPMI-8226 = test system: RPMI-8226
A549 = test system: A549
HT-29 = test system: HT-29
MDA-N = test system: MDA-N
SN12C = test system: SN12C
MDA-MB-231 = test system: MDA-MB-231
A498 = test system: A498
NCI-H23 = test system: NCI-H23
UACC-257 = test system: UACC-257
UACC-62 = test system: UACC-62
OVCAR-4 = test system: OVCAR-4
Malme-3M = test system: Malme-3M
UO-31 = test system: UO-31
SF-295 = test system: SF-295
HL-60 = test system: HL-60
NCI/ADR-RES = test system: NCI/ADR-RES
TK-10 = test system: TK-10

SMILES | GI50 (SNB-19) | GI50 (HOP-92) | GI50 (RPMI-8226) | GI50 (A549) | GI50 (HT-29) | GI50 (MDA-N) | GI50 (SN12C) | GI50 (MDA-MB-231) | GI50 (A498) | GI50 (NCI-H23) | GI50 (UACC-257) | GI50 (UACC-62) | GI50 (OVCAR-4) | GI50 (Malme-3M) | GI50 (UO-31) | GI50 (SF-295) | GI50 (HL-60) | GI50 (NCI/ADR-RES) | GI50 (TK-10)
CCC1CC(=O)N(SCC(N)C(=O)O)C1=O (centres undefined) | > 100 µM (inactive) | > 100 µM (inactive) | > 100 µM (inactive) | > 100 µM (inactive) | > 100 µM (inactive) | > 100 µM (inactive) | > 100 µM (inactive) | > 100 µM (inactive) | > 100 µM (inactive) | > 100 µM (inactive) | > 100 µM (inactive) | > 100 µM (inactive) | > 100 µM (inactive) | > 100 µM (inactive) | > 100 µM (inactive) | > 100 µM (inactive) | > 100 µM (inactive) | > 100 µM (inactive) | > 100 µM (inactive)
CC(C)C[S+]1C2=C(CC(C)(C)CC2=O)[N-]c2ccccc21 (centres undefined) | > 100 µM (inactive) | > 100 µM (inactive) | > 100 µM (inactive) | > 100 µM (inactive) | > 100 µM (inactive) | > 100 µM (inactive) | > 100 µM (inactive) | > 100 µM (inactive) | > 100 µM (inactive) | > 100 µM (inactive) | > 100 µM (inactive) | > 100 µM (inactive) | > 100 µM (inactive) | > 100 µM (inactive) | > 100 µM (inactive) | > 100 µM (inactive) | > 100 µM (inactive) | > 100 µM (inactive) | > 100 µM (inactive)
COc1ccc(C2N(c3ccc(F)cc3)C(=O)N3C(c4ccc(OC)cc4)N(c4ccc(F)cc4)C(=O)N23)cc1 (centres undefined) | > 100 µM (inactive) | > 100 µM (inactive) | > 100 µM (inactive) | > 100 µM (inactive) | > 100 µM (inactive) | > 100 µM (inactive) | > 100 µM (inactive) | > 100 µM (inactive) | > 100 µM (inactive) | > 100 µM (inactive) | > 100 µM (inactive) | > 100 µM (inactive) | > 100 µM (inactive) | > 100 µM (inactive) | > 100 µM (inactive) | > 100 µM (inactive) | > 100 µM (inactive) | > 100 µM (inactive) | > 100 µM (inactive)
C/C1=C/C(=O)O[C@@H]2C[C@@H](CC[C@H](C)/C=C\C=C\CC1)O[C@@](O)([C@@H]1CSC(=O)N1)C2 [LATRUNCULIN A] | 0.611 µM (active) | 0.116 µM (active) | > 10 µM (inactive) | 0.564 µM (active) | 0.417 µM (active) | > 5.07 µM (inactive) | 0.428 µM (active) | 0.0834 µM (active) | 0.111 µM (active) | 2.14 µM (inactive) | 2.51 µM (inactive) | 0.348 µM (active) | 1.02 µM (active) | 0.895 µM (active) | 0.3 µM (active) | 0.262 µM (active) | 3.28 µM (inactive) | 3.01 µM (inactive) | 0.264 µM (active)
Cc1ccc(Cc2n[nH]c(=O)[nH]2)cc1 | > 100 µM (inactive) | > 100 µM (inactive) | – | > 100 µM (inactive) | > 100 µM (inactive) | > 100 µM (inactive) | > 100 µM (inactive) | > 100 µM (inactive) | > 100 µM (inactive) | > 100 µM (inactive) | > 100 µM (inactive) | > 100 µM (inactive) | > 100 µM (inactive) | > 100 µM (inactive) | > 100 µM (inactive) | > 100 µM (inactive) | > 100 µM (inactive) | > 100 µM (inactive) | > 100 µM (inactive)
Cc1cc(S(=O)(=O)Nc2nc(-c3ccccn3)n[nH]2)c(S)cc1Cl | 16.9 µM (inactive) | 19 µM (inactive) | 33.7 µM (inactive) | 12.9 µM (inactive) | 15.3 µM (inactive) | 42.2 µM (inactive) | 36.2 µM (inactive) | 29.2 µM (inactive) | 16.9 µM (inactive) | – | 30.9 µM (inactive) | 7.96 µM (inactive) | 18.6 µM (inactive) | 18.1 µM (inactive) | 2.67 µM (inactive) | – | 16.1 µM (inactive) | 6.5 µM (inactive) | 10 µM (inactive)
CCOC(=O)C(=[N+]=[N-])C(=O)Nc1nn2nnnc2c2ccccc12 | > 100 µM (inactive) | > 100 µM (inactive) | > 100 µM (inactive) | > 100 µM (inactive) | > 100 µM (inactive) | > 100 µM (inactive) | > 100 µM (inactive) | > 100 µM (inactive) | > 100 µM (inactive) | > 100 µM (inactive) | > 100 µM (inactive) | > 100 µM (inactive) | > 100 µM (inactive) | > 100 µM (inactive) | > 100 µM (inactive) | > 100 µM (inactive) | > 100 µM (inactive) | > 100 µM (inactive) | –
